Laboratory results: US20250320213A1, “Nitrogen-Containing Heterocyclic Compounds” (Pfizer Inc., priority 2024, published 2025)

Legend:
[1] = target: T1, STAT6 (Homo sapiens, UniProt P42226); test: STAT6 Reporter Luciferase Assay (IL-13 stimulated HaCaT keratinocyte NanoLuc reporter cells); format: cell-based; conditions: STAT6 NanoLuc luciferase reporter, IL-13 stimulated HaCaT keratinocyte cells; read-out: Reporter EC50
T1 construct: stably transfected HaCaT keratinocyte cell line, which expresses NanoLuc luciferase reporter gene under the transcriptional control of the STAT6 responsive promoter; endogenous in cells; host or cells: HaCaT keratinocyte reporter cell line (stably transfected with a NanoLuc reporter)
T1 sequence (P42226 1-847): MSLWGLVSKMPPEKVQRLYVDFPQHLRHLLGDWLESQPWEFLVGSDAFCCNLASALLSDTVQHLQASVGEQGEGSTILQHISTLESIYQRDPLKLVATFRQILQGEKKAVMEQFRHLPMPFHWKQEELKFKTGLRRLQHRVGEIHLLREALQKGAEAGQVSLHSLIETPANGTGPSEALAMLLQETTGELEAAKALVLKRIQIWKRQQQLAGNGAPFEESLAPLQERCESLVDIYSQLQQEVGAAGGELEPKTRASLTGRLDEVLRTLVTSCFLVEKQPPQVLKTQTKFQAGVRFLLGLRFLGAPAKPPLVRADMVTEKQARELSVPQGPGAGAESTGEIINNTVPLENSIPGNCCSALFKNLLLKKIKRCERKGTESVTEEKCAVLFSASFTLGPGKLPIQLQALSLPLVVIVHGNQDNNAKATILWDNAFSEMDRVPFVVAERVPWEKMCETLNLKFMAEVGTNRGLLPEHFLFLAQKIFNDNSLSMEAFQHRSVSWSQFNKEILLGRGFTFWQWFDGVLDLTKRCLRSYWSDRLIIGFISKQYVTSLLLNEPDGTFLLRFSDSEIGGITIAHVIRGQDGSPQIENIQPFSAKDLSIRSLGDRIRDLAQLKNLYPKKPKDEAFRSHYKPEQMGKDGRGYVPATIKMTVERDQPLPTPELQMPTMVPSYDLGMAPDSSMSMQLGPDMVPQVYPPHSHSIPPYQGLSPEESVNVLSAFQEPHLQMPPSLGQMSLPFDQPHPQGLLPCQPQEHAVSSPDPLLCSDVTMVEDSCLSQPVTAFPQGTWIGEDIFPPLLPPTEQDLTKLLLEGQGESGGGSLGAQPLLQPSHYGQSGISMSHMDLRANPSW
Procedure, shortened: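 IL-13 (0.12 nM, 4 h) stimulated STAT6 reporter activity in HaCaT cells after a 2 h compound pre-incubation; NanoLuc signal was measured.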

[2] = test system: CCL17 secretion in peripheral human whole blood; test: Human Whole Blood (HWB) CCL17 TR-FRET Assay (IL-13 stimulated CCL17 secretion); format: cell-based; conditions: Homo sapiens, 48 h, inhibition of CCL17 secretion in human whole blood, 10 ng/mL IL13, 48 hours
Procedure, shortened: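 IC50 values reflect inhibition of IL-13-driven CCL17 release in human whole blood. Blood was preincubated with compound 2 h, stimulated 48 h at 37 °C with IL-13 (10 ng/mL final), and serum CCL17 was measured by TR-FRET.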

Row | EC50 [1] | IC50 [2] | SMILES
1 | 8 nM | 535 nM | CC(C)n1nc(C(=O)NCc2ccc(NC(=O)NC3CCC3)cc2)c2c1CCN(c1ccc(C(=O)N(C)C)cn1)C2 [Example 157, N-(4-(3-cyclobutylureido)benzyl)-5-(5-(dimethylcarbamoyl)pyridin-2-yl)-1-isopropyl-4,5,6,7-tetrahydro-1H-pyrazolo[4,3-c]pyridine-3-carboxamide]
2 | 15 nM | 130 nM | CC(C)n1nc(C(=O)NCc2ccc(NC(=O)N3CC(C#N)C3)cc2)c2c1CCN(c1ccc(C(=O)N(C)C)cn1)C2 [Example 158, N-(4-(3-cyanoazetidine-1-carboxamido)benzyl)-5-(5-(dimethylcarbamoyl)pyridin-2-yl)-1-isopropyl-4,5,6,7-tetrahydro-1H-pyrazolo[4,3-c]pyridine-3-carboxamide]
3 | 16 nM | 59 nM | CC(C)n1nc(C(=O)NCc2ccc(NC(=O)N3CCO[C@H](CO)C3)cc2)c2c1CCN(c1ccc(C(=O)N(C)C)cn1)C2 [Example 159, (S)-N-(4-((5-(5-(dimethylcarbamoyl)pyridin-2-yl)-1-isopropyl-4,5,6,7-tetrahydro-1H-pyrazolo[4,3-c]pyridine-3-carboxamido)methyl)phenyl)-2-(hydroxymethyl)morpholine-4-carboxamide]
4 | 7 nM | 199 nM | CC(C)n1nc(C(=O)NCc2ccc(NC(=O)N3CCC(C(F)F)CC3)cc2)c2c1CCN(c1ccc(C(=O)N(C)C)cn1)C2 [Example 161, N-(4-(4-(difluoromethyl)piperidine-1-carboxamido)benzyl)-5-(5-(dimethylcarbamoyl)pyridin-2-yl)-1-isopropyl-4,5,6,7-tetrahydro-1H-pyrazolo[4,3-c]pyridine-3-carboxamide]
5 | 11 nM | 66 nM | CC(C)n1nc(C(=O)NCc2ccc(NC(=O)N3CCC(OCCO)CC3)cc2)c2c1CCN(c1ccc(C(=O)N(C)C)cn1)C2 [Example 162, 5-(5-(dimethylcarbamoyl)pyridin-2-yl)-N-(4-(4-(2-hydroxyethoxy)piperidine-1-carboxamido)benzyl)-1-isopropyl-4,5,6,7-tetrahydro-1H-pyrazolo[4,3-c]pyridine-3-carboxamide]
6 | 16 nM | 30 nM | CC(C)n1nc(C(=O)NCc2ccc(NC(=O)N3CC(C)(N)C3)cc2)c2c1CCN(c1ccc(C(=O)N(C)C)cn1)C2 [Example 163, N-(4-(3-amino-3-methylazetidine-1-carboxamido)benzyl)-5-(5-(dimethylcarbamoyl)pyridin-2-yl)-1-isopropyl-4,5,6,7-tetrahydro-1H-pyrazolo[4,3-c]pyridine-3-carboxamide]
7 | 14 nM | 156 nM | COC1(C)CN(C(=O)Nc2ccc(CNC(=O)c3nn(C(C)C)c4c3CN(c3ccc(C(=O)N(C)C)cn3)CC4)cc2)C1 [Example 165, 5-(5-(dimethylcarbamoyl)pyridin-2-yl)-1-isopropyl-N-(4-(3-methoxy-3-methylazetidine-1-carboxamido)benzyl)-4,5,6,7-tetrahydro-1H-pyrazolo[4,3-c]pyridine-3-carboxamide]
8 | 4 nM | 21 nM | CO[C@H]1CN(C(=O)Nc2ccc(CNC(=O)c3nn(C(C)C)c4c3CN(c3ccc(C(=O)N(C)C)cn3)CC4)cc2)C[C@@H]1O [Example 166, 5-(5-(dimethylcarbamoyl)pyridin-2-yl)-N-(4-((3S,4S)-3-hydroxy-4-methoxypyrrolidine-1-carboxamido)benzyl)-1-isopropyl-4,5,6,7-tetrahydro-1H-pyrazolo[4,3-c]pyridine-3-carboxamide]
9 | 29 nM | 154 nM | CC(C)n1nc(C(=O)NCc2ccc(NC(=O)N3CCO[C@@H](CO)C3)cc2)c2c1CCN(c1ccc(C(=O)N(C)C)cn1)C2 [Example 167, (R)-N-(4-((5-(5-(dimethylcarbamoyl)pyridin-2-yl)-1-isopropyl-4,5,6,7-tetrahydro-1H-pyrazolo[4,3-c]pyridine-3-carboxamido)methyl)phenyl)-2-(hydroxymethyl)morpholine-4-carboxamide]
10 | 24 nM | 111 nM | CC(C)n1nc(C(=O)NCc2ccc(NC(=O)N(C)CC3COC3)cc2)c2c1CCN(c1ccc(C(=O)N(C)C)cn1)C2 [Example 168, 5-(5-(dimethylcarbamoyl)pyridin-2-yl)-1-isopropyl-N-(4-(3-methyl-3-(oxetan-3-ylmethyl)ureido)benzyl)-4,5,6,7-tetrahydro-1H-pyrazolo[4,3-c]pyridine-3-carboxamide]
11 | 32 nM | 125 nM | CC(C)n1nc(C(=O)NCc2ccc(NC(=O)N[C@H]3C[C@@H](O)C3)cc2)c2c1CCN(c1ccc(C(=O)N(C)C)cn1)C2 [Example 169]
12 | 17 nM | 82 nM | CC(C)n1nc(C(=O)NCc2ccc(NC(=O)N3CC[C@H](N(C)C)C3)cc2)c2c1CCN(c1ccc(C(=O)N(C)C)cn1)C2 [Example 170, (S)-N-(4-(3-(dimethylamino)pyrrolidine-1-carboxamido)benzyl)-5-(5-(dimethylcarbamoyl)pyridin-2-yl)-1-isopropyl-4,5,6,7-tetrahydro-1H-pyrazolo[4,3-c]pyridine-3-carboxamide]
13 | 11 nM | 150 nM | CC(C)n1nc(C(=O)NCc2ccc(NC(=O)N3CCC(C)(C#N)CC3)cc2)c2c1CCN(c1ccc(C(=O)N(C)C)cn1)C2 [Example 172, N-(4-(4-cyano-4-methylpiperidine-1-carboxamido)benzyl)-5-(5-(dimethylcarbamoyl)pyridin-2-yl)-1-isopropyl-4,5,6,7-tetrahydro-1H-pyrazolo[4,3-c]pyridine-3-carboxamide]
14 | 11 nM | 72 nM | CC(C)n1nc(C(=O)NCc2ccc(NC(=O)N3CCOCC3)cc2)c2c1CCN(c1ccc(C(=O)N(C)C)cn1)C2 [Example 173, N-(4-((5-(5-(dimethylcarbamoyl)pyridin-2-yl)-1-isopropyl-4,5,6,7-tetrahydro-1H-pyrazolo[4,3-c]pyridine-3-carboxamido)methyl)phenyl)morpholine-4-carboxamide]
15 | 7 nM | 67 nM | CC(C)n1nc(C(=O)NCc2ccc(NC(=O)N3CCC(CO)CC3)cc2)c2c1CCN(c1ccc(C(=O)N(C)C)cn1)C2 [Example 175, 5-(5-(dimethylcarbamoyl)pyridin-2-yl)-N-(4-(4-(hydroxymethyl)piperidine-1-carboxamido)benzyl)-1-isopropyl-4,5,6,7-tetrahydro-1H-pyrazolo[4,3-c]pyridine-3-carboxamide]
16 | 8 nM | 51 nM | CC(C)n1nc(C(=O)NCc2ccc(NC(=O)N3CCN(C)CC3)cc2)c2c1CCN(c1ccc(C(=O)N(C)C)cn1)C2 [Example 177, 5-(5-(dimethylcarbamoyl)pyridin-2-yl)-1-isopropyl-N-(4-(4-methylpiperazine-1-carboxamido)benzyl)-4,5,6,7-tetrahydro-1H-pyrazolo[4,3-c]pyridine-3-carboxamide]
17 | 7 nM | 45 nM | COCCNC(=O)Nc1ccc(CNC(=O)c2nn(C(C)C)c3c2CN(c2ccc(C(=O)N(C)C)cn2)CC3)cc1 [Example 178, 5-(5-(dimethylcarbamoyl)pyridin-2-yl)-1-isopropyl-N-(4-(3-(2-methoxyethyl)ureido)benzyl)-4,5,6,7-tetrahydro-1H-pyrazolo[4,3-c]pyridine-3-carboxamide]
18 | 7 nM | 64 nM | CO[C@@H]1CCN(C(=O)Nc2ccc(CNC(=O)c3nn(C(C)C)c4c3CN(c3ccc(C(=O)N(C)C)cn3)CC4)cc2)C1 [Example 179, (R)-5-(5-(dimethylcarbamoyl)pyridin-2-yl)-1-isopropyl-N-(4-(3-methoxypyrrolidine-1-carboxamido)benzyl)-4,5,6,7-tetrahydro-1H-pyrazolo[4,3-c]pyridine-3-carboxamide]
19 | 18 nM | 55 nM | CC(C)n1nc(C(=O)NCc2ccc(NC(=O)N(C)CCO)cc2)c2c1CCN(c1ccc(C(=O)N(C)C)cn1)C2 [Example 180, 5-(5-(dimethylcarbamoyl)pyridin-2-yl)-N-(4-(3-(2-hydroxyethyl)-3-methylureido)benzyl)-1-isopropyl-4,5,6,7-tetrahydro-1H-pyrazolo[4,3-c]pyridine-3-carboxamide]
